Reference: patent publication US11051515B2, “3-acyl-benzamides and their use as herbicides” (Bayer Aktiengesellschaft, priority 2017, dated 2021)

Columns and labels:
ALOMY [1] = assay: Pre-emergence action against ALOMY; assay type: in vivo, Alopecurus myosuroides; settings: dosage 320 g/ha; pre-emergence; scored visually after 3 weeks vs untreated controls; 100% = plants have died, 0% = like control plants
In short: (§1)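 Seeds sown in sandy loam in wood-fiber pots and covered with soil. Greenhouse growth; visual damage scored after 3 weeks versus untreated controls (100% = dead, 0% = like control).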

AVEFA [2] = assay: Pre-emergence action against AVEFA; assay type: in vivo, Avena fatua; settings: dosage 320 g/ha, scored visually after 3 weeks vs untreated controls
In short: as §1

CYPES [3] = assay: Pre-emergence action against CYPES; assay type: in vivo, Cyperus esculentus; settings: pre-emergence, dosage 320 g/ha, scored visually after 3 weeks vs untreated controls
In short: as §1

ECHCG [4] = assay: Pre-emergence action against ECHCG; assay type: in vivo, Echinochloa crus-galli; settings: pre-emergence, dosage 320 g/ha, scored visually after 3 weeks vs untreated controls
In short: as §1

LOLMU [5] = assay: Pre-emergence action against LOLMU; assay type: in vivo, Lolium multiflorum; settings: dosage 320 g/ha, scored visually after 3 weeks vs untreated controls
In short: as §1

SETVI [6] = assay: Pre-emergence action against SETVI; assay type: in vivo, Setaria viridis; settings: pre-emergence, dosage 320 g/ha, scored visually after 3 weeks vs untreated controls
In short: as §1

ABUTH [7] = assay: Pre-emergence action against ABUTH; assay type: in vivo, Abutilon theophrasti; settings: pre-emergence, dosage 320 g/ha, scored visually after 3 weeks vs untreated controls
In short: as §1

AMARE [8] = assay: Pre-emergence action against AMARE; assay type: in vivo, Amaranthus retroflexus; settings: pre-emergence, dosage 320 g/ha, scored visually after 3 weeks vs untreated controls
In short: as §1

MATIN [9] = assay: Pre-emergence action against MATIN; assay type: in vivo, Matricaria inodora; settings: Dosage 320 g/ha, pre-emergence
In short: as §1

STEME [10] = assay: Pre-emergence action against STEME; assay type: in vivo, Stellaria media; settings: Dosage 320 g/ha, pre-emergence
In short: as §1

VIOTR [11] = assay: Pre-emergence action against VIOTR; assay type: in vivo, Viola tricolor; settings: Dosage 320 g/ha, pre-emergence
In short: as §1

VERPE [12] = assay: Pre-emergence action against VERPE; assay type: in vivo, Veronica persica; settings: Dosage 320 g/ha, pre-emergence
In short: as §1

ALOMY [13] = assay: Post-emergence action against ALOMY; assay type: in vivo, Alopecurus myosuroides; settings: Dosage 80 g/ha, post-emergence
In short: (§2)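 Post-emergence foliar spray on greenhouse plants at the one-leaf stage, using wettable-powder or emulsion-concentrate formulations in water (600 to […], plus 0.2% wetting agent). Damage scored by eye roughly 3 weeks later against untreated plants: 0% = like control, 100% = dead.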

AVEFA [14] = assay: Post-emergence action against AVEFA; assay type: in vivo, Avena fatua; settings: post-emergence, dosage 80 g/ha, visual assessment about 3 weeks after treatment vs untreated controls
In short: as §2

CYPES [15] = assay: Post-emergence action against CYPES; assay type: in vivo, Cyperus esculentus; settings: post-emergence, dosage 80 g/ha, visual assessment about 3 weeks after treatment vs untreated controls
In short: as §2

ECHCG [16] = assay: Post-emergence action against ECHCG; assay type: in vivo, Echinochloa crus-galli; settings: post-emergence, dosage 80 g/ha, visual assessment about 3 weeks after treatment vs untreated controls
In short: as §2

LOLMU [17] = assay: Post-emergence action against LOLMU; assay type: in vivo, Lolium multiflorum; settings: dosage 80 g/ha, visual assessment about 3 weeks after treatment vs untreated controls
In short: as §2

SETVI [18] = assay: Post-emergence action against SETVI; assay type: in vivo, Setaria viridis; settings: post-emergence, dosage 80 g/ha, visual assessment about 3 weeks after treatment vs untreated controls
In short: as §2

ABUTH [19] = assay: Post-emergence action against ABUTH; assay type: in vivo, Abutilon theophrasti; settings: post-emergence, dosage 80 g/ha, visual assessment about 3 weeks after treatment vs untreated controls
In short: as §2

AMARE [20] = assay: Post-emergence action against AMARE; assay type: in vivo, Amaranthus retroflexus; settings: post-emergence, dosage 80 g/ha, visual assessment about 3 weeks after treatment vs untreated controls
In short: as §2

MATIN [21] = assay: Post-emergence action against MATIN; assay type: in vivo, Matricaria inodora; settings: post-emergence, dosage 80 g/ha, visual assessment about 3 weeks after treatment vs untreated controls
In short: as §2

PHBPU [22] = assay: Post-emergence action against PHBPU; assay type: in vivo, Pharbitis purpurea; settings: post-emergence, dosage 80 g/ha
In short: as §2

POLCO = assay: Post-emergence action against POLCO; assay type: in vivo, Polygonum convolvulus; settings: post-emergence, dosage 80 g/ha
In short: as §2

STEME [23] = assay: Post-emergence action against STEME; assay type: in vivo, Stellaria media; settings: post-emergence, dosage 80 g/ha
In short: as §2

VIOTR [24] = assay: Post-emergence action against VIOTR; assay type: in vivo, Viola tricolor; settings: post-emergence, dosage 80 g/ha
In short: as §2

VERPE [25] = assay: Post-emergence action against VERPE; assay type: in vivo, Veronica persica; settings: dosage 80 g/ha
In short: as §2

PHBPU [26] = assay: Pre-emergence action against PHBPU; assay type: in vivo, Pharbitis purpurea; settings: Dosage 320 g/ha, pre-emergence
In short: as §1

## CCn1nnnc1NC(=O)c1ccc(S(C)(=O)=O)c(C(=O)C2CC2)c1Cl [2-129]
ALOMY [1]
  Pre-emergence action against ALOMY (herbicidal activity in percent): 90%
AVEFA [2]
  Pre-emergence action against AVEFA (herbicidal activity): 100%
CYPES [3]
  Pre-emergence action against CYPES (herbicidal activity): 100%
ECHCG [4]
  Pre-emergence action against ECHCG (herbicidal activity): 100%
LOLMU [5]
  Pre-emergence action against LOLMU (herbicidal activity): 90%
SETVI [6]
  SETVI (Table B8, pre-emergence herbicidal activity): 100%
ABUTH [7]
  Pre-emergence action against ABUTH (herbicidal activity): 100%
AMARE [8]
  Pre-emergence action against AMARE (herbicidal activity): 100%
MATIN [9]
  Pre-emergence action against MATIN: 100%
STEME [10]
  Pre-emergence action against STEME: 100%
VIOTR [11]
  Pre-emergence action against VIOTR: 100%
VERPE [12]
  Pre-emergence action against VERPE: 100%
ALOMY [13]
  Post-emergence action against ALOMY: 100%
AVEFA [14]
  Post-emergence action against AVEFA (herbicidal action in percent): 100%
CYPES [15]
  Post-emergence action against CYPES (herbicidal action in percent): 80%
ECHCG [16]
  Post-emergence action against ECHCG (herbicidal action in percent): 90%
LOLMU [17]
  Post-emergence action against LOLMU (herbicidal action in percent): 90%
SETVI [18]
  Post-emergence action against SETVI (herbicidal action in percent): 100%
ABUTH [19]
  Post-emergence action against ABUTH (herbicidal action in percent): 80%
AMARE [20]
  Post-emergence action against AMARE (herbicidal action in percent): 100%
MATIN [21]
  Post-emergence action against MATIN (herbicidal action in percent): 100%
PHBPU [22]
  Post-emergence action against PHBPU: 100
POLCO
  Post-emergence action against POLCO: 100
STEME [23]
  Post-emergence action against STEME: 100
VIOTR [24]
  Post-emergence action against VIOTR: 100
VERPE [25]
  Post-emergence action against VERPE: 100

## CCC(=O)c1c(C(F)(F)F)ccc(C(=O)Nc2nnnn2CC)c1C [2-15]
ALOMY [1]
  Pre-emergence action against ALOMY (herbicidal activity in percent): 100%
AVEFA [2]
  Pre-emergence action against AVEFA (herbicidal activity): 100%
CYPES [3]
  Pre-emergence action against CYPES (herbicidal activity): 90%
ECHCG [4]
  Pre-emergence action against ECHCG (herbicidal activity): 100%
LOLMU [5]
  Pre-emergence action against LOLMU (herbicidal activity): 100%
SETVI [6]
  SETVI (Table B8, pre-emergence herbicidal activity): 100%
ABUTH [7]
  Pre-emergence action against ABUTH (herbicidal activity): 100%
AMARE [8]
  Pre-emergence action against AMARE (herbicidal activity): 100%
MATIN [9]
  Pre-emergence action against MATIN: 100%
PHBPU [26]
  Pre-emergence action against PHBPU: 80%
STEME [10]
  Pre-emergence action against STEME: 100%
VIOTR [11]
  Pre-emergence action against VIOTR: 100%
VERPE [12]
  Pre-emergence action against VERPE: 100%
ALOMY [13]
  Post-emergence action against ALOMY: 100%
AVEFA [14]
  Post-emergence action against AVEFA (herbicidal action in percent): 80%
CYPES [15]
  Post-emergence action against CYPES (herbicidal action in percent): 90%
ECHCG [16]
  Post-emergence action against ECHCG (herbicidal action in percent): 90%
LOLMU [17]
  Post-emergence action against LOLMU (herbicidal action in percent): 90%
SETVI [18]
  Post-emergence action against SETVI (herbicidal action in percent): 100%
ABUTH [19]
  Post-emergence action against ABUTH (herbicidal action in percent): 100%
AMARE [20]
  Post-emergence action against AMARE (herbicidal action in percent): 90%
MATIN [21]
  Post-emergence action against MATIN (herbicidal action in percent): 90%
PHBPU [22]
  Post-emergence action against PHBPU: 80
POLCO
  Post-emergence action against POLCO: 100
STEME [23]
  Post-emergence action against STEME: 100
VIOTR [24]
  Post-emergence action against VIOTR: 100
VERPE [25]
  Post-emergence action against VERPE: 90
